Where two headings read alike, the source gives them in different places.
Tests used:
Mutul-Hp-Luc cells [1] = assay: microbe, parasite or virus in culture; type: cell-based, Epstein-Barr Virus (EBV)
Description: BHLF1 promoter (Hp) or the BZ1F1 promoter (Zp) was cloned into pHEBO plasmid into Nhel and HindIII restriction sites of pHEBO-luc plasmid (Yates, 1985, Nature, 313:812-815; and Deng, 2001, J. Virol. 75:10334-10347). To create pHEBO-GFP, most of luciferase gene was excised by BsrGI and HindIII sites and replaced with EGFP excised from pEGFP-N1 (Clontech). Mutul cells were transfected with the new pHEBO-Zp-luc, pHEBO-Hp-luc (FIG. 8) or pHEBO-Hp-GFP constructs and transfected cells were selected with 400 μg/mL of Hygromycin. After 2 weeks of selection, stable hygromycin-resistant cells were seeded at 5000 per well in 384 well white plates and assayed as described below.
Columns 1, 2, 23, and 24 received DMSO (0.2% final concentration). The remaining 320 wells in columns 3-22 received test compounds at a final concentration of 10 μM cumulative concentration for the 5 compounds/2 μM individual compound concentration/0.2% final DMSO concentration. Cells were incubated with compounds for 48 h at 37° C./5% CO2. Twenty microliters of Steady-Glo® Luciferase Reagent (Promega) was added to assay plates and incubated for 15 minutes at room temperature. Plates were centrifuged and luminescence was measured on an EnVision® Excite multilabel microplate reader, using the ultrasensitive luminescence measurement technology (Perkin Elmer).
To confirm the activity of candidate compounds identified after deconvolution that exceeded the cutoff parameter, liquid stock from the screening library was retested as single compounds at a final concentration of 10 μM, using assay conditions identical to the primary high-throughput screen.
To eliminate confirmed actives that may interfere with the assay technology by inhibiting luciferase, the activity of the compounds were tested in a biochemical luciferase assay counterscreen (Auld, 2008, J. Med. Chem., 51:2372-2386). To quantitatively assess the activity and prioritize compounds for further follow-up, fresh liquid stocks prepared from powders were reformatted as a 10 point dilution series spanning at least 3-logs, starting at 10 μM, the initial screening concentration. Data for test compounds was normalized to DMSO and NaB (1 mM) plate controls to calculate fold stimulation and z-factor (σ is variance/standard deviations), μ is mean of positive (p) and negative (n) controls). Z-factor is a statistical measurement that assesses the quality of the assay and predicts if the assay can be useful in a high-throughput screening. Z factors above 0.5 are considered acceptable. The screen's Z-factor was above 0.
The relative EC50 for each compound, i.e., the concentration of compound that produced 50% of the maximum effect, was calculated using a […] non-linear regression analysis (GraphPad Prism® 6 software). Error bars represent SD for each concentration of a compound. To assist with decision making points, compound activities were stratified into 4 categories: […]

Mutul cells = assay: cell viability by trypan blue dye exclusion, with or without GCV; type: cell-based; settings: 6 days, compounds at 1 μM
Protocol: Mutul-Hp-Luc were seeded at 0.2 million per mL and treated with Compound 4. Compound 4 was added again 48 h. Freshly made GCV was added on Day 2 for 4 days twice a day, in the morning and 8 h later. Cell viability was measured either with Resazurin 5 days after the first Compound 4 treatment, or the cells were stained with Trypan blue on Day 6. […] Live cells were counted by the Trypan Blue stain exclusion method. […] Different concentrations of Compound 4 combined with GCV (gray bars) or without GCV (black bars) were used. Cell viability was measured as a percentage of DMSO-treated control cells. 590 nm fluorescence values are proportionate to the cell viability. […] Daily viability assay for Mutul cells treated with either DMSO, NaB, compound 4 (0.5 μM) with or without GCV was measured.
It was tested whether combination of the newly identified activators and GCV would increase selective cell killing of EBV infected cells. […] Specifically, gangcyclovir (GCV) was combined with a sublethal dose of compounds (1 μM) to determine if it could induce cell death in Mutul cells after six days of treatment. Cell viability was measured by trypan blue dye exclusion.

Mutul-Hp-Luc cells [2] = type: cell-based, Epstein-Barr Virus (EBV)
latent EBV = settings: cited from earlier work
[3] = in vivo; cited from earlier work
[4] = tested on: histone H3 acetylation in Mutul and Mutu-LCL352 cells; assay: immunoblot for acetylation of histone H3; type: cell-based; settings: 48 h; 2 mM NaB or 1 μM compound
Protocol: (§1) FIGS. 7A-C are gels illustrating the mechanism of EBV reactivation of the compounds in distinct from HDAC inhibitors and TPA. FIG. 7A is Mutul cells treated with 2% DMSO, 2 mM NaB, 20 ng/mL TPA, or 1 μM compound for 48 h, immunoblotted, and probed for acetylation of histone H3 and β-actin. FIG. 7B is Mutu-LCL352 cells treated and probed as in described in FIG. 7A. FIG. 7C is Mutul cells treated with controls or compounds for 0.5 h, immunoblotted, and probed for phosphorylated forms of p90RSK, p53, p38MAPK, S6, total MAPK, and β-actin.
Mutul and Mutu-LCL352 cell lines were used to test whether the newly identified EBV activators function as […] by increasing acetylation on histone H3.

EBV positive Mutul cells = assay: resazurin cytotoxicity assay with or without GCV
Protocol: Mutul-Hp-Luc were seeded at 0.2 million per mL and treated with Compound 4. Compound 4 was added again 48 h. Freshly made GCV was added on Day 2 for 4 days twice a day, in the morning and 8 h later. Cell viability was measured either with Resazurin 5 days after the first Compound 4 treatment, or the cells were stained with Trypan blue on Day 6. […] Live cells were counted by the Trypan Blue stain exclusion method. […] Different concentrations of Compound 4 combined with GCV (gray bars) or without GCV (black bars) were used. Cell viability was measured as a percentage of DMSO-treated control cells. 590 nm fluorescence values are proportionate to the cell viability. Cells tested include EBV-positive Mutul (FIG. 6C), Akata (FIG. 6D), DG75 (FIG. 6E), and Mutu-LCL352 (FIG. 6F). Daily viability assay for Mutul cells treated with either DMSO, NaB, compound 4 (0.5 μM) with or without GCV was measured.
Assay plates were prepared by seeding 25,000 Mutul cells in 50 μL of RPMI supplemented with 15% FBS in 384 well tissue culture plates (Nunc). […] Cells were incubated for 5 days at 37° C./5% CO2 and viability was monitored by the addition of 20 μL of 500 μM resazurin (Sigma) and incubation for 4 h at 37° C. Plates were centrifuged and fluorescence intensity was measured at 590 nm on an Envision® Xcite multilabel microplate reader (Perkin Elmer). […]

[5] = tested on: p38 MAPK, S6, p90RSK and p53 phosphorylation in Mutul cells; assay: immunoblot for phosphorylation of p38 MAPK, S6, p90RSK and p53; type: cell-based; settings: 0.5 h
Protocol: as §1
Cells were incubated with DMSO, 2 mM sodium butyrate (NaB), […] 12-O-tetradecanoyl phorbol-13-acetate (TPA) or 1 μM of compounds for 72 h, washed in PBS once and lysed in 1×Laemmii buffer. Protein extract equivalent to 10^5 cells were loaded on 8-16% SDS-PAGE gels (Invitrogen) and transferred to nitrocellulose membranes (Millipore). Lytic reactivation was detected with a rabbit polyclonal anti-ZTA and mouse monoclonal anti-EA-D (Abcam) antibodies diluted in 5% evaporated milk and incubated with the membranes for 2 h at RT, or overnight at 4° C., followed by secondary anti-mouse or rabbit HRP-conjugated (Roche). Rabbit antibodies against phospho-p38 MAPK, -S6, -p90RSK and -p53 West Pico were mixed into a PathScan® cocktail (Cell Signaling). […]

EBV positive BL cells = settings: cited from earlier work
[6] = human gammaherpesvirus 4, read-out: EC50 values
[7] = Mutul-Hp-Luc cells, up to 2 mM NaB

COC(=O)c1ccccc1NC(=O)N1CCc2c([nH]c3ccc(Cl)cc23)C1c1ccc(OC)cc1 (centres unmarked) [Compound 10]
EC50 (Mutul-Hp-Luc cells [1]; human gammaherpesvirus 4, 48 h): < 500 nM | EC50 (Mutul-Hp-Luc cells [1]; [6]): 50 to 200 nM

COc1ccc(C2NCCc3c2[nH]c2ccc(Cl)cc32)cc1 (centres unmarked) [Compound 11]
EC50 (Mutul-Hp-Luc cells [1]; human gammaherpesvirus 4, 48 h): < 500 nM

COc1ccc(C2c3[nH]c4ccc(Cl)cc4c3CCN2C(=O)c2cccc(OC)c2)cc1 (centres unmarked) [Compound 12]
EC50 (Mutul-Hp-Luc cells [1]; human gammaherpesvirus 4, 48 h): < 500 nM | EC50 (Mutul-Hp-Luc cells [1]; [6]): 50 to 200 nM

COc1ccc(C2c3[nH]c4ccc(Cl)cc4c3CCN2C(=O)c2ccccc2F)cc1 (centres unmarked) [Compound 13]
EC50 (Mutul-Hp-Luc cells [1]; human gammaherpesvirus 4, 48 h): > 500 nM

COc1ccc(C2c3[nH]c4ccc(Cl)cc4c3CCN2C(=O)c2ccccc2Cl)cc1 (centres unmarked) [Compound 14]
EC50 (Mutul-Hp-Luc cells [1]; human gammaherpesvirus 4, 48 h): > 500 nM

COc1ccc(C2c3[nH]c4ccc(Cl)cc4c3CCN2C(=O)c2c(Cl)cccc2Cl)cc1 (centres unmarked) [Compound 15]
EC50 (Mutul-Hp-Luc cells [1]; human gammaherpesvirus 4, 48 h): > 500 nM

COc1ccc(C2c3[nH]c4ccc(Cl)cc4c3CCN2C(=O)c2ccccc2C(F)(F)F)cc1 (centres unmarked) [Compound 16]
EC50 (Mutul-Hp-Luc cells [1]; human gammaherpesvirus 4, 48 h): > 500 nM

COc1ccc(C2c3[nH]c4ccc(Cl)cc4c3CCN2C(=O)c2ccccc2OC)cc1 (centres unmarked) [Compound 17]
EC50 (Mutul-Hp-Luc cells [1]; human gammaherpesvirus 4, 48 h): > 500 nM

COc1ccc(C2c3[nH]c4ccc(Cl)cc4c3CCN2C(=O)c2ccc(F)cc2)cc1 (centres unmarked) [Compound 18]
EC50 (Mutul-Hp-Luc cells [1]; human gammaherpesvirus 4, 48 h): > 500 nM

COc1ccc(C2c3[nH]c4ccc(Cl)cc4c3CCN2C(=O)c2ccc(Cl)cc2)cc1 (centres unmarked) [Compound 19]
EC50 (Mutul-Hp-Luc cells [1]; human gammaherpesvirus 4, 48 h): < 500 nM

COc1ccc(C2c3[nH]c4ccc(Cl)cc4c3CCN2C(=O)c2ccc(C(F)(F)F)cc2)cc1 (centres unmarked) [Compound 20]
EC50 (Mutul-Hp-Luc cells [1]; human gammaherpesvirus 4, 48 h): < 500 nM

COc1ccc(C(=O)N2CCc3c([nH]c4ccc(Cl)cc34)C2c2ccc(OC)cc2)cc1 (centres unmarked) [Compound 21]
EC50 (Mutul-Hp-Luc cells [1]; human gammaherpesvirus 4, 48 h): < 500 nM | EC50 (Mutul-Hp-Luc cells [1]; [6]): 50 to 200 nM

COc1ccc(C2c3c(c4cc(Cl)ccc4n3C(=O)c3ccc(F)cc3)CCN2C(=O)c2ccc(F)cc2)cc1 (centres unmarked) [Compound 22]
EC50 (Mutul-Hp-Luc cells [1]; human gammaherpesvirus 4, 48 h): < 500 nM | EC50 (Mutul-Hp-Luc cells [1]; [6]): 50 to 200 nM

COc1ccc(C2c3c(c4cc(Cl)ccc4n3C(=O)c3ccc(Cl)cc3)CCN2C(=O)c2ccc(F)cc2)cc1 (centres unmarked) [Compound 23]
EC50 (Mutul-Hp-Luc cells [1]; human gammaherpesvirus 4, 48 h): > 500 nM

COc1ccc(C2c3[nH]c4ccc(Cl)cc4c3CCN2S(=O)(=O)c2ccccc2OC)cc1 (centres unmarked) [Compound 25]
EC50 (Mutul-Hp-Luc cells [1]; human gammaherpesvirus 4, 48 h): > 500 nM

COc1ccc(C2c3[nH]c4ccc(Cl)cc4c3CCN2S(=O)(=O)c2ccc(OC)cc2)cc1 (centres unmarked) [Compound 26]
EC50 (Mutul-Hp-Luc cells [1]; human gammaherpesvirus 4, 48 h): > 500 nM

Nc1nc(O)c2ncn(COC(CO)CO)c2n1 [GCV, gancyclovir]
reduction of cell viability as single agent (Mutul cells): −10%

CCCC(=O)[O-].[Na+] [NaB, sodium butyrate]
cell viability on longer exposure (Mutul-Hp-Luc cells [2]; 2 mM NaB, longer periods than 48 h): loss of cell viability | cell toxicity (Mutul-Hp-Luc cells [2]; [7]): relatively low cell toxicity | signal-to-background (Mutul-Hp-Luc cells [2]; [7]): 20-40 fold | luciferase response to NaB (Mutul-Hp-Luc cells [2]; pHEBO-Hp-Luc in Mutul cells, 2 mM NaB vs DMSO): > 20 fold | concentrations required to trigger the latent to lytic switch (latent EBV): millimolar concentrations | pharmacokinetics [3]: unsuitable pharmacokinetics | acetylation of histone H3 [4]: caused histone acetylation in both cell lines | synergy with GCV on killing EBV-positive cells (EBV positive Mutul cells; Mutul cells, combination with 10 μg/mL GCV): did not synergize with GCV | toxicity to cells (EBV positive Mutul cells; with or without GCV, daily resazurin): toxic to cells regardless of EBV positive status

CCCCCCCCCCCCCC(=O)O[C@@H]1[C@@H](C)[C@@]2(O)[C@@H](C=C(CO)C[C@]3(O)C(=O)C(C)=C[C@@H]23)[C@@H]2C(C)(C)[C@]12OC(C)=O [TPA, 12-O-tetradecanoyl phorbol-13-acetate]
phosphorylation of p38 MAPK, S6, p90RSK and p53 [5]: increase in phosphorylation

CC(C)C[C@H](NC(=O)[C@H](Cc1ccccc1)NC(=O)c1cnccn1)B(O)O [bortezomib]
activation of latent EBV (EBV positive BL cells): activator of latent EBV in a limited number of EBV positive BL cells

arginine butyrate
concentrations required to trigger the latent to lytic switch (latent EBV): millimolar concentrations | efficacy in clinical trial [3]: efficacious | tolerability in clinical trial [3]: not tolerated due to toxicity

— US10307406B2, “Methods and compositions for re-activating Epstein-Barr virus and screening compounds therefor” (The Wistar Institute of Anatomy and Biology, priority 2013, dated 2019)
